Our source for the IC50 values is ChEMBL document CHEMBL5727042, “Heteroaromatic compounds as BTK inhibitors” (2018).

This assay has as its target T1, Tyrosine-protein kinase Tec (Homo sapiens, UniProt P42680).
T1 sequence (P42680 whole entry): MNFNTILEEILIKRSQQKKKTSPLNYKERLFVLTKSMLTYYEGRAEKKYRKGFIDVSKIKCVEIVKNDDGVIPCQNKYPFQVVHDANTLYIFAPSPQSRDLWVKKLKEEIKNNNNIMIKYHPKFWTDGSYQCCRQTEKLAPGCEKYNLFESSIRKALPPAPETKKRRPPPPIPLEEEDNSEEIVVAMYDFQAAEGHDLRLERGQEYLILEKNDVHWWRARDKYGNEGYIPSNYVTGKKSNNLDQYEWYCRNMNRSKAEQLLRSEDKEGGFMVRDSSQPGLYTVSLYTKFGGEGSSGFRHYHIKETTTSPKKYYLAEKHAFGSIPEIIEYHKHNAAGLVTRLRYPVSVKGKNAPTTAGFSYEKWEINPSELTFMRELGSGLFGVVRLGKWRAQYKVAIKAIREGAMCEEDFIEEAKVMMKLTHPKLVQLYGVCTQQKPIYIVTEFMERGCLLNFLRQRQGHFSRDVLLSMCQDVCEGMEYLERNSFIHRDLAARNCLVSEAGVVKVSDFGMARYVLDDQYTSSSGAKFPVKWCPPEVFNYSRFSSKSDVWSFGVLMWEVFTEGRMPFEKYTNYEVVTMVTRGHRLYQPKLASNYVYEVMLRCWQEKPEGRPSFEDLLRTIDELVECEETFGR
Kind of assay: Lanthscreen Eu Kinase Binding Assay : Lanthscreen Eu Kinase Binding assay […] is performed as described above for BTK except that 1 nM human recombinant full length TEC (His-tagged) kinase and 1 nM Alexa Fluor647-labeled Kinase Tracer #178 were used instead.Representative compounds of the present invention are assessed for inhibition of BTK, BMX, and TXK measuring phosphorylation of a ….
Turning to `CC#CC(=O)N1CC[C@]2(C1)C[C@H](n1nc(-c3cnn(Cc4cc(C(F)(F)F)ccc4OC)c3)c(C(N)=O)c1N)C2`, the concentration for half-maximal inhibition (IC50) (in general, the concentration that gives 50% inhibition) worked out at 1200 nM.
Consider `CC#CC(=O)N1CC[C@]2(C1)C[C@H](n1nc(-c3cnn(Cc4ccc(Cl)c(C(F)(F)F)c4)c3)c(C(N)=O)c1N)C2`, for which the IC50 is 38 nM.
As for `CC#CC(=O)N1CC[C@]2(C1)C[C@H](n1nc(-c3cnn(Cc4cc(C(F)(F)F)ccc4Cl)c3)c(C(N)=O)c1N)C2`, the figure is 130 nM; as for `CC#CC(=O)N1CC[C@]2(C1)C[C@H](n1nc(-c3cnn(Cc4cccc(C(F)(F)F)c4Cl)c3)c(C(N)=O)c1N)C2`, 45 nM.
